Measurements published in ChEMBL document CHEMBL4725398 (Bioorg Med Chem, 2020).

Legend:
[1] = target: Epidermal growth factor receptor (Homo sapiens, UniProt P00533, L858R/T790M); assay: Inhibition of recombinant human EGFR T790M/L858R mutant expressed in baculovirus insect cell expression system in presence of ATP preincubated 5 mins measured for 30 mins by detection reagent based HTRF analysis
NCI-H1975 [2] = assay: cells; settings: Homo sapiens, NCI-H1975, 48 h
SW-620 = assay: cells; settings: Homo sapiens, SW-620, 48 h
Description: Antiproliferation activity against EGFR-negative human SW620 cells assessed as reduction in cell viability incubated incubated for 48 hrs by MTT assay

A-431 = assay: cells; settings: Homo sapiens, A-431, 48 h
Description: Antiproliferation activity against human A431 cells assessed as reduction in cell viability incubated incubated for 48 hrs by MTT assay

[3] = target: Epidermal growth factor receptor (Homo sapiens, UniProt P00533); assay: Inhibition of wild type EGFR (unknown origin) in presence of ATP preincubated 5 mins measured for 30 mins by detection reagent based HTRF analysis
COS-7 = assay: Cytotoxicity against African green monkey COS7 cells assessed as decrease in cell viability incubated incubated for 48 hrs by MTT assay; type: cell-based; settings: Chlorocebus aethiops, COS-7, 48 h
NCI-H1975 [4] = assay: Cell cycle arrest in human NCI-H1975 cells assessed as accumulation at G2/G1 phase at 0.5 uM incubated for 24 hrs measured after 2 days by propidium iodide staining based flow cytometric analysis (reference value: 1.89 %); type: functional
NCI-H1975 [5] = assay: Cell cycle arrest in human NCI-H1975 cells assessed as accumulation at G2 phase at 0.25 uM incubated for 24 hrs measured after 2 days by propidium iodide staining based flow cytometric analysis (reference value: 34.04 %); type: functional
NCI-H1975 [6] = assay: Cell cycle arrest in human NCI-H1975 cells assessed as diploid cell at 0.25 uM incubated for 24 hrs measured after 2 days by propidium iodide staining based flow cytometric analysis (reference value: 100 %); type: functional
NCI-H1975 [7] = assay: Cell cycle arrest in human NCI-H1975 cells assessed as accumulation at S phase at 0.5 uM incubated for 24 hrs measured after 2 days by propidium iodide staining based flow cytometric analysis (reference value: 24.04 %); type: functional
NCI-H1975 [8] = assay: Cell cycle arrest in human NCI-H1975 cells assessed as decrease in accumulation at G2/M phase at 0.25 to 1 uM incubated for 24 hrs measured after 2 days by propidium iodide staining based flow cytometric analysis (reference value: 34.04%); type: functional; parameters: scale not given: the % may be the effect or the level left; settings: dose microM 0.25-1
NCI-H1975 [9] = assay: Cell cycle arrest in human NCI-H1975 cells assessed as accumulation at G1 phase at 0.25 uM incubated for 24 hrs measured after 2 days by propidium iodide staining based flow cytometric analysis (reference value: 41.92 %); type: functional
NCI-H1975 [10] = assay: Cell cycle arrest in human NCI-H1975 cells assessed as accumulation at G2 phase at 1 uM incubated for 24 hrs measured after 2 days by propidium iodide staining based flow cytometric analysis (reference value: 34.04 %); type: functional
NCI-H1975 [11] = assay: Cell cycle arrest in human NCI-H1975 cells assessed as accumulation at G2/G1 phase at 1 uM incubated for 24 hrs measured after 2 days by propidium iodide staining based flow cytometric analysis (reference value: 1.89 %); type: functional
NCI-H1975 [12] = assay: Cell cycle arrest in human NCI-H1975 cells assessed as accumulation at G2 phase at 0.5 uM incubated for 24 hrs measured after 2 days by propidium iodide staining based flow cytometric analysis (reference value: 34.04 %); type: functional
NCI-H1975 [13] = assay: Cell cycle arrest in human NCI-H1975 cells assessed as accumulation at S phase at 1 uM incubated for 24 hrs measured after 2 days by propidium iodide staining based flow cytometric analysis (reference value: 24.04 %); type: functional
NCI-H1975 [14] = assay: Cell cycle arrest in human NCI-H1975 cells assessed as accumulation at S phase at 0.25 uM incubated for 24 hrs measured after 2 days by propidium iodide staining based flow cytometric analysis (reference value: 24.04 %); type: functional
NCI-H1975 [15] = assay: Cell cycle arrest in human NCI-H1975 cells assessed as accumulation at G1 phase at 0.5 uM incubated for 24 hrs measured after 2 days by propidium iodide staining based flow cytometric analysis (reference value: 41.92 %); type: functional
NCI-H1975 [16] = assay: Cell cycle arrest in human NCI-H1975 cells assessed as accumulation at G2/G1 phase at 0.25 uM incubated for 24 hrs measured after 2 days by propidium iodide staining based flow cytometric analysis (reference value: 1.89 %); type: functional
NCI-H1975 [17] = assay: Cell cycle arrest in human NCI-H1975 cells assessed as diploid cell at 1 uM incubated for 24 hrs measured after 2 days by propidium iodide staining based flow cytometric analysis (reference value: 100 %); type: functional
NCI-H1975 [18] = assay: Cell cycle arrest in human NCI-H1975 cells assessed as increase in accumulation at G0/G1 phase at 0.25 to 1 uM treated for 24 hrs measured after 2 days by propidium iodide staining based flow cytometric analysis (reference value: 41.92%); type: functional; settings: dose microM 0.25-1
NCI-H1975 [19] = assay: Cell cycle arrest in human NCI-H1975 cells assessed as accumulation at G1 phase at 1 uM incubated for 24 hrs measured after 2 days by propidium iodide staining based flow cytometric analysis (reference value: 41.92 %); type: functional
NCI-H1975 [20] = assay: Cell cycle arrest in human NCI-H1975 cells assessed as diploid cell at 0.5 uM incubated for 24 hrs measured after 2 days by propidium iodide staining based flow cytometric analysis (reference value: 100 %); type: functional

Sequence of Epidermal growth factor receptor (Homo sapiens, UniProt P00533, L858R/T790M) (P00533 25-1210 T790M/L858R limits assumed): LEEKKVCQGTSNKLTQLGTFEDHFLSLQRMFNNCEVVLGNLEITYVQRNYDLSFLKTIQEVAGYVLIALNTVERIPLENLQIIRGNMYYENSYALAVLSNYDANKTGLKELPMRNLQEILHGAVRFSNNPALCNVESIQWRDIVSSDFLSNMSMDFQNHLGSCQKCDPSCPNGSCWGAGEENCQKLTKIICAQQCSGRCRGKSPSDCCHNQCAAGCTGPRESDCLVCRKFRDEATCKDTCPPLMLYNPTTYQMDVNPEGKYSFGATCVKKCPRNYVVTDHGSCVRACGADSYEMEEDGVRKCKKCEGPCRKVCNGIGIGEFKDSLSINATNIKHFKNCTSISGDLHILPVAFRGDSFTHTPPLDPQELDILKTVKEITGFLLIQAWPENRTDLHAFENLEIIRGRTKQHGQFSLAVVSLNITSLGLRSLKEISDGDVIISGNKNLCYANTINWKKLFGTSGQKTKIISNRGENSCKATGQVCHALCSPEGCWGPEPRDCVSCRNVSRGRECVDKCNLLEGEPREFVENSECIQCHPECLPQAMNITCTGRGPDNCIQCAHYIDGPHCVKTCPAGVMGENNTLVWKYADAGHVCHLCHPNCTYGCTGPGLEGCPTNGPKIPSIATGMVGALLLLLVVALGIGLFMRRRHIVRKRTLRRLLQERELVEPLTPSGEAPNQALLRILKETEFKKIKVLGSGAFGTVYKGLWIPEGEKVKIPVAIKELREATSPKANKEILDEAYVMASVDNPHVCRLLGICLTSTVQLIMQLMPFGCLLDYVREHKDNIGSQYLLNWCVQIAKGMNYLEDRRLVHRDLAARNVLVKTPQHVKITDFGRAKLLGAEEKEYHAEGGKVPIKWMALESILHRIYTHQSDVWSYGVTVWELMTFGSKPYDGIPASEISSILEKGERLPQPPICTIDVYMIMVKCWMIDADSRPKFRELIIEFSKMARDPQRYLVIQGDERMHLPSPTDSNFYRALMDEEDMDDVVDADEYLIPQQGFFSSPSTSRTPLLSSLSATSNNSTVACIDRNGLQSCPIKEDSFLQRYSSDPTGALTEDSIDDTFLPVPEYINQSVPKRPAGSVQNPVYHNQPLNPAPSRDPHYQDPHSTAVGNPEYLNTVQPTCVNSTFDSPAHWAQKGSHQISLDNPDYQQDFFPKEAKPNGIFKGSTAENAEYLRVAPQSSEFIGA
Sequence of Epidermal growth factor receptor (Homo sapiens, UniProt P00533) (P00533 whole entry): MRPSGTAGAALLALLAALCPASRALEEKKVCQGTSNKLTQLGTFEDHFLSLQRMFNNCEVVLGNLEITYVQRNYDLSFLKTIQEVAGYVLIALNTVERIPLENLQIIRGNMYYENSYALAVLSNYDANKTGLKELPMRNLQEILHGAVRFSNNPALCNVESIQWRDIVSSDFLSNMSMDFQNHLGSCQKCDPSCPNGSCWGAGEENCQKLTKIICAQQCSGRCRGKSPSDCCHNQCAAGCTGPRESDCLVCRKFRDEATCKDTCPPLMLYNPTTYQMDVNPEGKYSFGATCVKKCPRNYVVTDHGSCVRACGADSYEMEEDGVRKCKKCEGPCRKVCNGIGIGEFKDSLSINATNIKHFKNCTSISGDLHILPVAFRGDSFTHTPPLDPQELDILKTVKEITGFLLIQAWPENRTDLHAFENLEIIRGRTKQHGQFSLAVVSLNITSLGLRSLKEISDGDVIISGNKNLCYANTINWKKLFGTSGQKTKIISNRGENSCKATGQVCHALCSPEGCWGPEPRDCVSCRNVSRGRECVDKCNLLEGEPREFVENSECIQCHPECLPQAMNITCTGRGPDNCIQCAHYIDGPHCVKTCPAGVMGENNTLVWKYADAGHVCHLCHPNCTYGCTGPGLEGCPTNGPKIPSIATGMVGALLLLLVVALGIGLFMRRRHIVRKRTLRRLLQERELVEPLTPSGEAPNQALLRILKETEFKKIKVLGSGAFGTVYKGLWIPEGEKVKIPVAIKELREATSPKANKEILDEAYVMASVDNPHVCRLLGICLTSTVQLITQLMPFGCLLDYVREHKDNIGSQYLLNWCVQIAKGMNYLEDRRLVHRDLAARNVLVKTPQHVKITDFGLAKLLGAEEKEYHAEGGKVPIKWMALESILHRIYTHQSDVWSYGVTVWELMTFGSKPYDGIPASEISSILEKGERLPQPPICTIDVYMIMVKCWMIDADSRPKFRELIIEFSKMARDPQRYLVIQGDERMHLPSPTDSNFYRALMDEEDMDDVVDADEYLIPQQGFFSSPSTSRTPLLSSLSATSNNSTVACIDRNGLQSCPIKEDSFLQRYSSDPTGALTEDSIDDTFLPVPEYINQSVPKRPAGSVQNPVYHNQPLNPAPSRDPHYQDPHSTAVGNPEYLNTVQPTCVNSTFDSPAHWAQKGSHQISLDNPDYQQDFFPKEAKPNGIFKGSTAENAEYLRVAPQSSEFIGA

Row | SMILES | IC50 (NCI-H1975 [2]) [nM] | IC50 (A-431) [nM] | IC50 (SW-620) [nM] | also measured
1 | C=C(Cl)C(=O)Nc1cccc(Nc2nc(Nc3ccc(N4CCN(C(C)=O)CC4)nc3)ncc2Cl)c1 | 1640 | 870 | 2410 | IC50 [1]: 7.5 nM; IC50 [3]: 130 nM
2 | C=C(Cl)C(=O)Nc1cccc(Oc2nc(Nc3ccc(N4CCN(C)CC4)cc3OC)ncc2Cl)c1 | 13600 | 1060 | – | –
3 | C=C(Cl)C(=O)Nc1cccc(Nc2nc(Nc3ccc(N4CCN(C(C)=O)CC4)c(C)c3)ncc2Cl)c1 | 180 | 1300 | 2070 | IC50 (COS-7): 5400 nM; IC50 [1]: 2.6 nM; IC50 [3]: 51 nM
4 | C=C(Cl)C(=O)Nc1cccc(Nc2nc(Nc3ccc(N4CCN(C(C)=O)CC4)cc3OC)ncc2C(F)(F)F)c1 | 200 | 3680 | 3990 | IC50 [1]: 16 nM; IC50 [3]: 257 nM
5 | C=C(F)C(=O)Nc1cc(Nc2ncc(Cl)c(-c3cn(C)c4ccccc34)n2)ccc1N(C)C | > 50000 | > 50000 | – | –
6 | C=C(F)C(=O)Nc1cccc(Oc2nc(Nc3ccc(N4CCN(C(C)=O)CC4)cc3OC)ncc2Cl)c1 | 7030 | > 50000 | – | –
7 | C=C(F)C(=O)Nc1cccc(Nc2nc(Nc3ccc(N4CCN(C(C)=O)CC4)c(C(F)(F)F)c3)ncc2Cl)c1 | 9880 | 2860 | – | –
8 | C=C(Cl)C(=O)Nc1cccc(Nc2nc(Nc3ccc(N4CCN(C(C)=O)CC4)c(Cl)c3)ncc2Cl)c1 | 1020 | 140 | 2340 | IC50 (COS-7): 7220 nM; IC50 [1]: 3.2 nM; IC50 [3]: 53 nM
9 | C=C(Cl)C(=O)Nc1cccc(Nc2nc(Nc3ccc(N4CCN(C(C)=O)CC4)cc3Cl)ncc2Cl)c1 | 1720 | 1830 | 3020 | IC50 (COS-7): 14900 nM; IC50 [1]: 47 nM; IC50 [3]: 301 nM
10 | C=C(C(=O)Nc1cccc(Nc2nc(Nc3ccc(N4CCN(C(C)=O)CC4)cc3)ncc2Cl)c1)c1ccccc1 | 5790 | 6160 | – | –
11 | C=C(F)C(=O)Nc1cccc(Nc2nc(Nc3ccc(N4CCN(C(C)=O)CC4)c(F)c3)ncc2Cl)c1 | 6560 | 7090 | – | –
12 | C=C(Cl)C(=O)Nc1cccc(Oc2nc(Nc3ccc(N4CCN(C(C)=O)CC4)cc3)ncc2Cl)c1 | 1150 | 620 | 4600 | IC50 [1]: 13 nM; IC50 [3]: 130 nM
13 | C=C(Cl)C(=O)Nc1cc(Nc2ncc(Cl)c(-c3cn(C)c4ccccc34)n2)ccc1N(C)C | 16900 | 2200 | – | –
14 | C=C(C)C(=O)Nc1cccc(Nc2nc(Nc3ccc(N4CCN(C(C)=O)CC4)cc3)ncc2Cl)c1 | 5570 | 10600 | – | –
15 | C=C(Cl)C(=O)Nc1cccc(Nc2nc(Nc3ccc(N4CCN(C(C)=O)CC4)cc3)ncc2Cl)c1 | 750 | 3140 | 29200 | Activity (NCI-H1975 [4]): 1.94%; Activity (NCI-H1975 [5]): 24.27%; IC50 (COS-7): 10400 nM; Activity (NCI-H1975 [6]): 98.52%; IC50 [1]: 3.9 nM; Activity (NCI-H1975 [7]): 19.43%; Activity (NCI-H1975 [8]): 22.18%; Activity (NCI-H1975 [9]): 54.06%; Activity (NCI-H1975 [10]): 19.15%; Activity (NCI-H1975 [11]): 1.89%; Activity (NCI-H1975 [12]): 22.18%; Activity (NCI-H1975 [13]): 16.89%; Activity (NCI-H1975 [14]): 21.67%; Activity (NCI-H1975 [15]): 58.39%; Activity (NCI-H1975 [16]): 1.95%; Activity (NCI-H1975 [17]): 99.81%; Activity (NCI-H1975 [18]): 58.39%; Activity (NCI-H1975 [19]): 63.96%; IC50 [3]: 70 nM; Activity (NCI-H1975 [20]): 98.81%
16 | C=C(F)C(=O)Nc1cccc(Nc2nc(Nc3ccc(N4CCN(C(C)=O)CC4)nc3)ncc2Cl)c1 | 20500 | 18100 | – | –
17 | C=C(F)C(=O)Nc1cccc(Oc2nc(Nc3ccc(N4CCN(C)CC4)cc3OC)ncc2Cl)c1 | 16700 | 11000 | – | –

Now from value to molecule, other results behind:

Row | IC50 (NCI-H1975 [2]) [nM] | IC50 (A-431) [nM] | SMILES | IC50 (SW-620) [nM] | also measured
18 | 1820 | 1580 | C=C(F)C(=O)Nc1cccc(Nc2nc(Nc3ccc(N4CCN(C(C)=O)CC4)cc3OC)ncc2Cl)c1 | – | –
19 | 3120 | 4440 | C=C(Cl)C(=O)Nc1cccc(Nc2nc(Nc3ccc(N4CCN(C(C)=O)CC4)cc3OC)ncc2Cl)c1 | – | –
20 | 2500 | 1470 | C=C(Cl)C(=O)Nc1cccc(Oc2nc(Nc3ccc(N4CCN(C(C)=O)CC4)c(C(F)(F)F)c3)ncc2Cl)c1 | – | –
21 | 3320 | 1890 | C=C(Cl)C(=O)Nc1cccc(Oc2nc(Nc3ccc(N4CCN(C(C)=O)CC4)cc3OC)ncc2Cl)c1 | – | –
22 | 420 | 1140 | C=C(Cl)C(=O)Nc1cccc(Nc2nc(Nc3ccc(N4CCN(C(C)=O)CC4)c(F)c3)ncc2Cl)c1 | – | –
23 | 3820 | 2370 | C=C(C)C(=O)Nc1cccc(Nc2nc(Nc3ccc(N4CCN(C(C)=O)CC4)cc3OC)ncc2Cl)c1 | – | –
24 | 4180 | 7130 | C=C(F)C(=O)Nc1cccc(Nc2nc(Nc3ccc(N4CCN(C(C)=O)CC4)c(Cl)c3)ncc2Cl)c1 | – | –
25 | 340 | 6500 | C=C(F)C(=O)Nc1cccc(Nc2nc(Nc3ccc(N4CCN(C(C)=O)CC4)cc3)ncc2Cl)c1 | 3610 | –
26 | 510 | 6010 | C=CC(=O)Nc1cccc(Nc2nc(Nc3ccc(N4CCN(C(C)=O)CC4)cc3OC)ncc2C(F)(F)F)c1 [ROCILETINIB] | 10500 | IC50 (COS-7): 7390 nM
